Test results reported in patent US6602987B1, “Azobenzene derivatives as labeling agents and intermediates thereof” (Yeda Research and Development Co., Ltd., priority 1998, dated 2003).

What was measured:
[1] = UV-Vis spectroscopic characteristics of free HABA and HABA-derivatives in buffer; assay type: physicochemical
Procedure: (§1) The degree of modification is calculated, after purification from side-products, on the basis of UV absorption at 356 nm in PBS, at 415 nm in basic environment, or at 504 nm after addition of excess of avidin in PBS.
(§2) Interaction of the HABAylated proteins with avidin or with anti-HABA antibodies is verified by following the characteristic shift of the absorption of the HABA chromophore. Table 4 depicts the spectroscopic characteristics in the spectra range of the HABA-derivatives as free molecules (not bound to proteins) upon interaction with avidin or specific affinity purified antibodies.

[2] = tested on: affinity purified anti-HABA antibodies; experiment: Spectral shift of the HABA chromophore upon interaction with affinity purified anti-HABA antibodies; assay type: binding, rabbit
avidin = target: T1, avidin (Gallus gallus, UniProt P02701); experiment: Spectral shift of the HABA chromophore upon interaction with avidin; assay type: binding
T1 construct: purchased STC Laboratories (Winnipeg, Canada)
T1 sequence (P02701 25-152): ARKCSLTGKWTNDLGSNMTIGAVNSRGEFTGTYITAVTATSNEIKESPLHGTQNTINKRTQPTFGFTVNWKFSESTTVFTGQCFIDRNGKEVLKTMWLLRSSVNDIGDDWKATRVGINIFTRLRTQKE
Procedure: as §1, §2

[3] = +affinity purified anti-HABA in PBS, (1:1)

| SMILES | ε[cm^−1M^−1] at λmax ([1]; PBS) | λmax (nm) ([1]; PBS) | ε[cm^−1M^−1] [2, 3] | λmax (nm) [2, 3] [nm] | ε[cm^−1M^−1] (avidin; +Avidin in PBS, (20:1)) | λmax (nm) (avidin; +Avidin in PBS, (20:1)) | ε500 nm of bound HABA (avidin; at 500 nm, HABA bound to nonlabeled avidin or anti-HABA antibodies) | ε[cm^−1M^−1] at λmax ([1]; 0.1 M AcOH) | λmax (nm) ([1]; 0.1 M AcOH) | ε[cm^−1M^−1] at λmax ([1]; 0.1 M NaOH) | λmax (nm) ([1]; 0.1 M NaOH) | ε280 nm ([1]; at 280 nm) | ε[cm^−1M^−1] at λmax ([2]; PBS/anti-HABA) | λmax (nm) ([2]; PBS/anti-HABA) | ε[cm^−1M^−1] at λmax (avidin; PBS/AVIDIN) | λmax (nm) (avidin; PBS/AVIDIN) |
| --- | --- | --- | --- | --- | --- | --- | --- | --- | --- | --- | --- | --- | --- | --- | --- | --- |
| O=C(O)c1ccccc1/N=N/c1ccc(O)cc1 [Compound 0, 4′-hydroxyazobenzene-2-carboxylic acid, reference compound] | 20,500 cm^−1M^−1 | 350 | 50,000 cm^−1M^−1 | 482 | 35,500 cm^−1M^−1 | 500 | about 30,000 |  |  |  |  |  |  |  |  |  |
| NCCCCCCNC(=O)CCc1cc(N=Nc2ccccc2C(=O)O)ccc1O [Compound 16, 3′-(6-aminohexylaminocarbonylethyl)-4′-hydroxy-azobenzene-2-carboxylic acid] | 12,900 cm^−1M^−1 | 356 |  |  |  |  |  | 12,500 cm^−1M^−1 | 356 | 15,000 cm^−1M^−1 | 420 | 3,300 | 50,000 cm^−1M^−1 | 482 | 30,000 cm^−1M^−1 | 504 |
| O=C(CCc1cc(N=Nc2ccccc2C(=O)O)ccc1O)NCCCCCCNC(=O)ON1C(=O)CCC1=O [Compound 17, 3′-(6-(succinimidyloxycarbonylamino)hexylaminocarbonylethyl)4′-hydroxy-azo-benzene-2-carboxylic acid] |  |  |  |  |  |  |  | 12,200 cm^−1M^−1 | 356 |  |  |  |  |  |  |  |
